# Source: publication PMC11078216, “Discovery of potent and selective activity-based probes (ABPs) for the deubiquitinating enzyme USP30” (RSC Chemical Biology, 2024)
# pIC50: −log10 of the molar value.
# How the values were obtained:
# [1] = biological target: T1, USP30 (Homo sapiens, UniProt Q70CQ3); assay: Direct target engagement in HEK293T cells: CuAAC ligation and in-gel fluorescence; assay type: cell-based; details: for probe concentration for detection of USP30 activity in intact cells: following 1 hour incubation
# T1 construct: We next determined cellular engagement of endogenous USP30 with IMP-2587 or IMP-2586; endogenous in cells; host or cells: HEK293T
# T1 sequence (Q70CQ3 1-517): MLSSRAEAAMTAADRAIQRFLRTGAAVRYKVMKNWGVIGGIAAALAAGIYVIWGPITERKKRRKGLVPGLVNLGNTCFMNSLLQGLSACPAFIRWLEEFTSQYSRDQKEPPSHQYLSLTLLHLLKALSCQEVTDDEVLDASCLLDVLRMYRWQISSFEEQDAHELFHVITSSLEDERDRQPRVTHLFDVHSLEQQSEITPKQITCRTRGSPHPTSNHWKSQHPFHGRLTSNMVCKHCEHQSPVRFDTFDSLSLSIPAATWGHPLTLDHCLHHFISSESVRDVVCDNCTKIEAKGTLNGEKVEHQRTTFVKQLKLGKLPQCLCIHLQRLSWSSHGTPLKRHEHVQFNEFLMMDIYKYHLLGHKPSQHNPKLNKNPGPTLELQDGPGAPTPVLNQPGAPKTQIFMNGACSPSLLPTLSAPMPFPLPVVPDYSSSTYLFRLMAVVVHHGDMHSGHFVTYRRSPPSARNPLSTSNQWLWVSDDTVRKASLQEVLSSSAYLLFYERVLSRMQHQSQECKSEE
# Protocol: We next determined cellular engagement of endogenous USP30 with IMP-2587 or IMP-2586. […] In-cell concentration-dependent competition by IMP-2587 and IMP-2586 for USP30 were confirmed below 100 nM probe (Fig. 2b and c), whilst engagement of an exemplar unrelated DUB, UCHL1, occurred only at a much higher concentration (30 000 nM). We hypothesise that incomplete modification of USP30 by HA-Ub-VME is likely due to limited retention of USP30 activity in cell lysates, which have likely had the USP30 transmembrane domain compromised, highlighting the potential utility of a small molecule USP30 ABP applicable directly in intact cells. Direct USP30 target engagement by IMP-2587 and IMP-2586 was confirmed in HEK293T cells following 1 h probe treatment followed by cell lysis and CuAAC bio-orthogonal ligation to capture reagent azido-TAMRA-biotin (AzTB) for IMP-2587 or alkyne-TAMRA-biotin for IMP-2586 (Fig. 3a).[27] […] This unspecific background labelling is presumably due to the previously reported higher off-target CuAAC reactivity of an alkyne-bearing capture reagent, applied here due to incorporation of an azide tag in IMP-2586.[28] Moreover, the labelling of USP30 was further confirmed by biotin pulldown and immunoblotting. […]
# d) Live cell probe incubation, lysate click chemistry and precipitation 6-well HEK293T cells were incubated with media containing compounds ABP 2 and ABP 4 at indicated concentrations for 1 h at 37 °C. The cells were washed with PBS and lysed with lysis buffer (50 μL (1% (v/v) Triton X-100, 0.1% (w/v) sodium dodecyl sulfate (SDS), EDTA-free complete protease inhibitor cocktail (1×, Roche) in PBS on ice for 10 min. The lysates were scraped and transferred to corresponding Lo-Bind Eppendorfs. Each lysate was sonicated for 1 minute, and the samples centrifuges at 5,000 x g at 4 °C for 5 minutes to pellet insoluble cellular debris. The supernatant was collected, and protein concentration was determined using the DC Protein Assay (Bio-Rad) as per manufacturer’s instructions, and normalised to lowest concentrated sample (e.g. 1 mg/mL, using lysis buffer). The following “click mixture” was prepared separately, preparing 6 μL for every 100 μL of […]
# Capture reagent (AzRB/AzT for ABP 2, YnT/YnB for ABP 4 10 mM in DMSO, 1 vol; final concentration […]
# The lysate samples (10-20 μg) were mixed with 4× Laemmli sample loading buffer (250 mM Tris -HCl pH 6.8, 30% (v/v) glycerol, 10% (w/v) SDS, 0.05% (w/v) bromophenol blue) supplemented with 20% v/v β-mercaptoethanol (BME) and boiled for 10 min at 95 °C. […] Gel were imaged on a Typhoon imager (GE Healthcare; λEx 532 nm, λEm 575 nm for TAMRA. For protein loading quantification, gels were stained with Coomassie blue staining solution overnight, rinsed with water and imaged on an ImageQuant™ […]
# [2] = tested on: USP30; details: following 30 minutes incubation; read-out: reported IC50 against USP30; cited from earlier work
# [3] = HEK293T, 1 h probe treatment, CuAAC to AzTB
structure (smiles),measurement,setting,value
N#CN1CC[C@@H](NC(=O)c2cc(-c3ccccc3Oc3ccc(N=[N+]=[N-])cc3)n[nH]2)C1 [IMP-2586],probe concentration for detection of USP30 activity in intact cells,[1],3 to 10 nM
C#Cc1cccc(-c2cc(NC(=O)CC3CCN(C#N)C3)on2)c1 (stereo not drawn) [IMP-2587],lowest probe concentration showing major band at ca. 60 kDa (in-gel fluorescence),[1]; [3],3 nM
same,probe concentration above which additional bands are labelled (in-gel fluorescence),[1]; [3],above 30 nM
same,probe concentration for detection of USP30 activity in intact cells,[1],3 to 10 nM
"N#CN1CC[C@H](CC(=O)Nc2cc(-c3cccc(Cl)c3)no2)C1 [compound 1, reference compound]",pIC50,[2],8.00 to 9.00
"N#CN1CC[C@@H](NC(=O)c2cc(-c3ccccc3Oc3ccccc3)n[nH]2)C1 [compound 3, reference compound]",pIC50,[2],8.82
